{"source": "patent US20060233743A1", "about": "“Compositions and methods of therapy” (priority 2002, published 2006)", "key": {"[1]": {"system": "cells of the immune system", "assay": "release of IL-10 from cells of the immune system in the presence of GMCSF", "format": "cell-based"}, "PDE": {"system": "PDE", "details": "cited from earlier work"}, "U937 cells": {"system": "U937 cells", "assay": "Example 5: IL-10 and TNFα mRNA in U937 cells", "format": "cell-based, human", "details": "differentiation, PMA 2×10^−7 M", "experimental": "U937 (human monocyte cell line) cells were grown in RPMI (PAA Laboratories) medium with 10% fetal calf serum added (PAA Laboratories). Cells were treated with prostaglandin E2 at 10^−6 Molar, Rolipram 10^−6 Molar, Forskolin 50×10^−6 Molar with or without GMCSF at 5 ng/ml for 48 hours. Cells were pelleted and the mRNA was extracted with Tri reagent (Sigma, Poole, UK). Total RNA was obtained by addition of chloroform and subsequent isopropanol precipitation. RNA was reverse transcribed with reverse transcriptase (Applied Biosystems) and random hexamers (Applied Biosystems). Probes and primers for amplification and detection of IL-10 were designed using Primer Express (Applied Biosystems) and are as follows:\nAs for Example 4 but mRNA for TNFα alpha is also included.\nData is shown as the ratio of IL-10 mRNA/TNFα mRNA. P═PMA=Phorbol myristoyl acetate; F=Fsk=Forskolin, g=GMCSF, C=vehicle control."}, "type IV PDE": {"system": "type IV PDE", "details": "type IV PDE inhibitor; cited from earlier work"}}}
{"compound": "19-hydroxy PGE", "values": [{"measurement": "stimulation of IL-10", "setting": "[1]", "result": "increased strikingly"}]}
{"compound": "CC(C)Cn1c(=O)n(C)c(=O)c2[nH]cnc21", "note": "[IBMX, 3-isobutyl-1-methylxanthine]", "values": [{"measurement": "IC50", "setting": "PDE; non-specific PDE inhibitor", "result": "2000 to 50000", "unit": "nM"}]}
{"compound": "CCCCC[C@H](O)/C=C/[C@H]1[C@H](O)CC(=O)[C@@H]1C/C=C\\CCCC(=O)O", "note": "[PGE, prostaglandin E2]", "values": [{"measurement": "stimulation of IL-10", "setting": "[1]", "result": "increased strikingly"}]}
{"compound": "CCCCCCCCCCCCCC(=O)O[C@@H]1[C@@H](C)[C@@]2(O)[C@@H](C=C(CO)C[C@]3(O)C(=O)C(C)=C[C@@H]23)[C@@H]2C(C)(C)[C@]12OC(C)=O", "note": "[PMA, Phorbol myristoyl acetate]", "values": [{"measurement": "IL-10 mRNA", "setting": "U937 cells", "result": "increased"}, {"measurement": "TNFα mRNA", "setting": "U937 cells; Forskolin 50×10^−6 Molar, GMCSF 5 ng/ml", "result": "also increased"}]}
{"compound": "CCCCOc1cc(CC2CNC(=O)N2)ccc1OC", "note": "(centres unmarked) [Ro-20-1724, 4-[3-butoxy-4-methoxybenzyl]-2-imidazolidinone]", "values": [{"measurement": "IC50", "setting": "type IV PDE", "result": 2000, "unit": "nM"}]}
{"compound": "COc1ccc(C2CNC(=O)C2)cc1OC1CCCC1", "note": "(centres unmarked) [rolipram, 4-[3-cyclopentyloxy-4-methoxyphenyl]-2-pyrrolidinone]", "values": [{"measurement": "IC50", "setting": "type IV PDE", "result": 800, "unit": "nM"}]}
{"compound": "Cn1c(=O)c2[nH]cnc2n(C)c1=O", "note": "[theophylline]", "values": [{"measurement": "times less effective than rolipram", "setting": "PDE; non-selective inhibitor compared with rolipram", "result": 30, "unit": "times"}]}
